Experimental data taken from patent EP1379634B1 (THE UNIVERSITY OF GEORGIA RESEARCH FOUNDATION, INC., priority 2001, dated 2002).
Residues, ends and D or L forms follow the SMILES beside them. *: point of attachment. Cbz = O=C(OCc1ccccc1)*; CH2F = FC*

Assays:
[1] = molecular target: T1, Cathepsin H (Homo sapiens, UniProt P09668); experiment: Selectivity test (Steps VI and IX), Cathepsin H; assay type: biochemical; conditions: vehicle 4 X 10^-5 M; pH 6.8, substrate L-R-AFC; 40 µM
T1 sequence (P09668 98-335): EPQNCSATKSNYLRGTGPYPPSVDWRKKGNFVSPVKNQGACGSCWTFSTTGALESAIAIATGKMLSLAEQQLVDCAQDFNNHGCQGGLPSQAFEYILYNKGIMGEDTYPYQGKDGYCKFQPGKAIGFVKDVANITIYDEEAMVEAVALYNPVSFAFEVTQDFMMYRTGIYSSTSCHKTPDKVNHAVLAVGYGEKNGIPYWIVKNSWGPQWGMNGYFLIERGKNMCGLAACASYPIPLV
Description: In order to perform the assay, the vehicle (for Step VI) or inhibitor (for Step IX) were incubated with the appropriate substrate in the correct assay buffer and allowed to equilibrate. Subsequently, the protease was added, and the assay was allowed to incubate for an appropriate time. The concentrations used in this experiment were as follows: Vehicle was set up at 4 X 10^-5 M in final assay buffer; Inhibitor was set up at 3 X 10^-10 M in the final assay buffer. Preferably the dosages employed should be the minimal amount of vehicle or inhibitor necessary to induce inhibition. […] Substrates were set up based upon the preferred substrate for cleavage of the particular enzyme.
Positive controls were set up similarly as described for test controls, except that a solvent blank was added in substitution for the inhibitor or vehicle (in a volume equal to the volume of inhibitor or vehicle addition). All of the inhibitors and vehicles could be dissolved in dimethylsulfoxide (DMSO), and therefore, this was the solvent of choice. Negative controls were set up by adding the inhibitor or vehicle and the preferred substrates in a tube without the protease. […]
Percent inhibition was calculated as: %Inhibition = ((AFC positive for "SI"−AFC negative for "SI")−(AFC test−AFC negative for "SI"))/(AFC positive for "SI"−AFC negative for "SI") × 100 [formula] […]

[2] = tested on: BALB/c mice; experiment: Observation of side effects in treated mice; assay type: in vivo

Molecule	% inhibition [1] [%]	side effects in treated animals ([2]; long or short-term period)	side effects in treated mice ([2]; long-term studies)	side effects / inhibitor toxicity in treated mice ([2]; mouse, in vivo)
Mu-Leu-Tyr-AFC [Mu-LY-AFC]	0	–	–	–
CC(C)C[C@H](NC(=O)OCc1ccccc1)C(=O)N[C@@H](CC(C)C)C(=O)N[C@@H](Cc1ccc(O)cc1)C(=O)CF [Z-LLY-FMK, Z-Leu-Leu-Tyr-FMK] (Cbz-Leu-Leu-Tyr-CH2F)	–	only negligible side effects	no side effects	no mice showed effects of inhibitor toxicity
